Experimental data from the supplement of paper PMC10307832.

Experiments:
Experiment in all cases: relative viability (nuclei count vs DMSO), 5 days (fraction); higher = more cells survive
CAP-232 + Tozasertib = compound: C[C@H]([C@@H](C(=O)N)NC(=O)[C@@H]1CSSC[C@@H](C(=O)N[C@H](C(=O)N[C@@H](C(=O)N[C@H](C(=O)N1)CCCCN)CC2=CNC3=CC=CC=C32)CC4=CC=C(C=C4)O)NC(=O)[C@@H](CC5=CC=CC=C5)N)O [CAP-232] + Cc1cc(Nc2cc(N3CCN(C)CC3)nc(Sc3ccc(NC(=O)C4CC4)cc3)n2)n[nH]1 [Tozasertib] (partner 0.1 µM)
Method in brief: (§1)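 A single step with final 0.05% Triton X-100, 1% formaldehyde and 1 ug/ml Hoechst fixed the cells and stained nuclei 5 days after treatment. Lung cancer cell lines in 1536-well plates had been treated by pin tool the day after seeding with one drug alone or a fixed anchor-drug dose plus five library-drug doses (not always all listed) in √10 steps, and nuclei were counted on 4× images. Relative viability is the ratio of nuclei in treated wells to nuclei in vehicle wells, taken as the median of duplicate plates.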

CAP-232 + Trametinib = compound: C[C@H]([C@@H](C(=O)N)NC(=O)[C@@H]1CSSC[C@@H](C(=O)N[C@H](C(=O)N[C@@H](C(=O)N[C@H](C(=O)N1)CCCCN)CC2=CNC3=CC=CC=C32)CC4=CC=C(C=C4)O)NC(=O)[C@@H](CC5=CC=CC=C5)N)O [CAP-232] + CC(=O)Nc1cccc(-n2c(=O)n(C3CC3)c(=O)c3c(Nc4ccc(I)cc4F)n(C)c(=O)c(C)c32)c1 [Trametinib] (partner 0.02 µM)
Method in brief: as §1

CAP-232 + Pemetrexed = compound: C[C@H]([C@@H](C(=O)N)NC(=O)[C@@H]1CSSC[C@@H](C(=O)N[C@H](C(=O)N[C@@H](C(=O)N[C@H](C(=O)N1)CCCCN)CC2=CNC3=CC=CC=C32)CC4=CC=C(C=C4)O)NC(=O)[C@@H](CC5=CC=CC=C5)N)O [CAP-232] + Nc1nc2[nH]cc(CCc3ccc(C(=O)N[C@@H](CCC(=O)O)C(=O)O)cc3)c2c(=O)[nH]1 [Pemetrexed] (partner 0.2 µM)
Method in brief: as §1

CAP-232 + Decitabine = compound: C[C@H]([C@@H](C(=O)N)NC(=O)[C@@H]1CSSC[C@@H](C(=O)N[C@H](C(=O)N[C@@H](C(=O)N[C@H](C(=O)N1)CCCCN)CC2=CNC3=CC=CC=C32)CC4=CC=C(C=C4)O)NC(=O)[C@@H](CC5=CC=CC=C5)N)O [CAP-232] + Nc1ncn([C@H]2C[C@H](O)[C@@H](CO)O2)c(=O)n1 [Decitabine] (partner 2 µM)
Method in brief: as §1

CAP-232 + Vorinostat = compound: C[C@H]([C@@H](C(=O)N)NC(=O)[C@@H]1CSSC[C@@H](C(=O)N[C@H](C(=O)N[C@@H](C(=O)N[C@H](C(=O)N1)CCCCN)CC2=CNC3=CC=CC=C32)CC4=CC=C(C=C4)O)NC(=O)[C@@H](CC5=CC=CC=C5)N)O [CAP-232] + O=C(CCCCCCC(=O)Nc1ccccc1)NO [Vorinostat] (partner 1 µM)
Method in brief: as §1

CAP-232 + AZD7762 = compound: C[C@H]([C@@H](C(=O)N)NC(=O)[C@@H]1CSSC[C@@H](C(=O)N[C@H](C(=O)N[C@@H](C(=O)N[C@H](C(=O)N1)CCCCN)CC2=CNC3=CC=CC=C32)CC4=CC=C(C=C4)O)NC(=O)[C@@H](CC5=CC=CC=C5)N)O [CAP-232] + NC(=O)Nc1cc(-c2cccc(F)c2)sc1C(=O)N[C@H]1CCCNC1 [AZD7762] (partner 0.2 µM)
Method in brief: as §1

CAP-232 + OSI-027 = compound: C[C@H]([C@@H](C(=O)N)NC(=O)[C@@H]1CSSC[C@@H](C(=O)N[C@H](C(=O)N[C@@H](C(=O)N[C@H](C(=O)N1)CCCCN)CC2=CNC3=CC=CC=C32)CC4=CC=C(C=C4)O)NC(=O)[C@@H](CC5=CC=CC=C5)N)O [CAP-232] + COc1cccc2cc(-c3nc([C@H]4CC[C@H](C(=O)O)CC4)n4ncnc(N)c34)[nH]c12 [OSI-027] (partner 0.5 µM)
Method in brief: as §1

CAP-232 + Palbociclib = compound: C[C@H]([C@@H](C(=O)N)NC(=O)[C@@H]1CSSC[C@@H](C(=O)N[C@H](C(=O)N[C@@H](C(=O)N[C@H](C(=O)N1)CCCCN)CC2=CNC3=CC=CC=C32)CC4=CC=C(C=C4)O)NC(=O)[C@@H](CC5=CC=CC=C5)N)O [CAP-232] + CC(=O)c1c(C)c2cnc(Nc3ccc(N4CCNCC4)cn3)nc2n(C2CCCC2)c1=O [Palbociclib] (partner 0.5 µM)
Method in brief: as §1

CAP-232 + Olaparib = compound: C[C@H]([C@@H](C(=O)N)NC(=O)[C@@H]1CSSC[C@@H](C(=O)N[C@H](C(=O)N[C@@H](C(=O)N[C@H](C(=O)N1)CCCCN)CC2=CNC3=CC=CC=C32)CC4=CC=C(C=C4)O)NC(=O)[C@@H](CC5=CC=CC=C5)N)O [CAP-232] + O=C(c1cc(Cc2n[nH]c(=O)c3ccccc23)ccc1F)N1CCN(C(=O)C2CC2)CC1 [Olaparib] (partner 8 µM)
Method in brief: as §1

CAP-232 = compound: C[C@H]([C@@H](C(=O)N)NC(=O)[C@@H]1CSSC[C@@H](C(=O)N[C@H](C(=O)N[C@@H](C(=O)N[C@H](C(=O)N1)CCCCN)CC2=CNC3=CC=CC=C32)CC4=CC=C(C=C4)O)NC(=O)[C@@H](CC5=CC=CC=C5)N)O [CAP-232]
Method in brief: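 After an overnight hold at 37 °C, lung cancer cell lines in 1536-well plates were pinned with five library-drug doses (not always all listed), each √10 from the next, on vehicle-anchored plates. The cells stayed 5 days without fresh medium, then a one-step fix, permeabilisation and Hoechst stain preceded 4× imaging and MetaXpress nuclear counts. A plate passed only with control CV under 25% and at least one doubling. Viability is the median, over plates, of treated-well nuclei relative to vehicle-well nuclei.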

NCI-H1648
relative viability (CAP-232 + Tozasertib; first compound 0.4 µM): 0.35 | relative viability (CAP-232 + Tozasertib; first compound 1.265 µM): 0.594 | relative viability (CAP-232 + Tozasertib; first compound 4 µM): 0.441 | relative viability (CAP-232 + Tozasertib; first compound 12.65 µM): 0.4 | relative viability (CAP-232 + Trametinib; first compound 0.4 µM): 0.358 | relative viability (CAP-232 + Trametinib; first compound 4 µM): 0.314 | relative viability (CAP-232 + Trametinib; first compound 12.65 µM): 0.472 | relative viability (CAP-232 + Pemetrexed; first compound 0.4 µM): 1.05 | relative viability (CAP-232 + Pemetrexed; first compound 4 µM): 0.92 | relative viability (CAP-232 + Pemetrexed; first compound 12.65 µM): 0.776 | relative viability (CAP-232 + Decitabine; first compound 0.4 µM): 0.524 | relative viability (CAP-232 + Decitabine; first compound 4 µM): 0.565 | relative viability (CAP-232 + Decitabine; first compound 12.65 µM): 0.466 | relative viability (CAP-232 + Vorinostat; first compound 0.4 µM): 0.292 | relative viability (CAP-232 + Vorinostat; first compound 4 µM): 0.453 | relative viability (CAP-232 + Vorinostat; first compound 12.65 µM): 0.411 | relative viability (CAP-232 + AZD7762; first compound 0.4 µM): 0.618 | relative viability (CAP-232 + AZD7762; first compound 4 µM): 0.77 | relative viability (CAP-232 + AZD7762; first compound 12.65 µM): 0.532 | relative viability (CAP-232 + OSI-027; first compound 0.4 µM): 0.238 | relative viability (CAP-232 + OSI-027; first compound 1.265 µM): 0.241 | relative viability (CAP-232 + OSI-027; first compound 4 µM): 0.265 | relative viability (CAP-232 + OSI-027; first compound 12.65 µM): 0.216 | relative viability (CAP-232 + Palbociclib; first compound 0.4 µM): 0.27 | relative viability (CAP-232 + Palbociclib; first compound 4 µM): 0.293 | relative viability (CAP-232 + Palbociclib; first compound 12.65 µM): 0.252 | relative viability (CAP-232 + Olaparib; first compound 0.4 µM): 0.698 | relative viability (CAP-232 + Olaparib; first compound 4 µM): 0.664 | relative viability (CAP-232 + Olaparib; first compound 12.65 µM): 0.644 | relative viability (CAP-232; 0.4 µM): 0.984 | relative viability (CAP-232; 1.265 µM): 0.761 | relative viability (CAP-232; 4 µM): 0.914 | relative viability (CAP-232; 12.65 µM): 0.885
